Results on two molecules are retold here after paper PMC9032233, “2-{5-[(Z,2Z)-2-Chloro-3-(4-nitrophenyl)-2-propenylidene]-4-oxo-2-thioxothiazolidin-3-yl}-3-methylbutanoic Acid as a Potential Anti-Breast Cancer Molecule” (International Journal of Molecular Sciences, 2022).

Where two headings read alike, the source gives them in different places.

One assay deals with LC3A. Briefly: LC3A concentration in MCF-7 cell lysates (ELISA). In kind it is cell-based, human. The note with it: 24 h, control 6.726 ng/mL. As for the experimental part: (§1) High sensitivity assay kits (EIAab Science Co., Ltd., Wuhan, China; Abcam plc., Cambridge, United Kingdom; Cloud-Clone Corp., Katy, TX, USA) were used to determine the concentrations of selected proteins in cell lysates […] In brief, after trypsinization, cells were washed thrice with cold PBS and centrifuged at 1000× g for 5 min at 4 °C. Then, cells (1.5 × 10^6) were suspended in lysis buffer for whole-cell lysates. After the second centrifugation, cellular supernatants were frozen immediately at −70 °C. Untreated cancer cells were taken as a control.
(§2) The microtiter plates provided in the kits were pre-coated with an antibody specific to the analyzed antigen. The tests were carried out according to the manufacturer’s protocols.

A further assay deals with topoisomerase II. Briefly: Topoisomerase II concentration in MDA-MB-231 cell lysates (ELISA). In kind it is cell-based, human. The note with it: 24 h, control 2.700 ng/mL. As for the experimental part: (§3) High sensitivity assay kits (EIAab Science Co., Ltd., Wuhan, China; Abcam plc., Cambridge, United Kingdom; Cloud-Clone Corp., Katy, TX, USA) were used to determine the concentrations of selected proteins in cell lysates after 24 h incubation with novel compound and reference drug in 1 µM and 5 µM concentrations. In brief, after trypsinization, cells were washed thrice with cold PBS and centrifuged at 1000× g for 5 min at 4 °C. Then, cells (1.5 × 10^6) were suspended in lysis buffer for whole-cell lysates. After the second centrifugation, cellular supernatants were frozen immediately at −70 °C. Untreated cancer cells were taken as a control.
as §2

The subject of a further assay is caspase-8. Nature of the assay: Caspase-8 concentration in MDA-MB-231 cell lysates (ELISA). The format is cell-based, human. The note with it: 24 h, control 0.828 ng/mL. The protocol:
as §3, §2

The subject of assay [1] is MCF-7 cells. Briefly: Annexin V binding assay (flow cytometry), MCF-7. In kind it is cell-based, human. The settings on record: 24 h. The protocol:
The effect of Les-3331 and reference drug on the induction of apoptosis process in human breast cancer cell lines was evaluated using a flow cytometer (BD FACSCanto II, Becton Dickinson Biosciences Systems, San Jose, CA, USA) and Annexin V binding Apoptosis Detection Kit II (BD Biosciences, San Diego, CA, USA). The Les-3331 and reference drug were used in 1 µM and 5 µM concentrations. The test was carried out after 24 h incubation with the tested compounds according to the manufacturer’s protocol and was previously described by our research group. Analysis of the obtained results was performed using FACSDiva software (version 6.1.3, BD Biosciences Systems, San Jose, CA, USA). The equipment was calibrated with BD Cytometer Setup and Tracking Beads (BD Biosciences, San Diego, CA, USA).

In another assay the test system is LC3B. Nature of the assay: LC3B concentration in MDA-MB-231 cell lysates (ELISA). The note with it: 24 h, control 1.504 ng/mL. The format is cell-based, human. As for the experimental part: as §1, §2
The next assay relates to topoisomerase IIα. Nature of the assay: Flow cytometric analysis of anti-topoisomerase IIα antibody, MDA-MB-231. The settings on record: 24 h. In kind it is cell-based, human. As for the experimental part:
To confirm the ELISA results, flow cytometric analysis of Top II activity using an anti-topoisomerase IIα antibody conjugated with phycoerythrin (PE) was performed. The Les-3331 and etoposide were used at 1 µM and 5 µM concentrations. Cancer cells were incubated for 24 h with tested compounds and the assay was carried out in accordance with the manufacturer’s protocol. Briefly, cells were centrifuged and resuspended in 4% formaldehyde. Then, cells were incubated at RT for 15 min and subsequently washed with excess PBS and centrifuged. Thereafter, ice-cold 90% methanol was added to the cells and they were incubated for 1 h in an ice bath. Next, cells were washed with excess PBS and centrifuged again. In the meantime, the primary antibody was diluted (1:100) in PBS. Then, cells were resuspended in the prepared primary antibody (100 µL) and incubated at RT, protected from light, for 1 h. Finally, cells were washed and resuspended in PBS (300 µL). The prepared samples were measured immediately. Analysis of the obtained results was performed using a flow cytometer (BD FACSCanto II, Becton Dickinson Biosciences Systems, San Jose, CA, USA) and FACSDiva software (v6.1.3, BD Biosciences Systems, San Jose, CA, USA). The equipment was calibrated with BD Cytometer Setup and Tracking Beads (BD Biosciences, San Diego, CA, USA).

Assay [2] concerns MCF-7 cells. Briefly: Mitochondrial membrane potential analysis (JC-1), MCF-7. The note with it: 24 h. In kind it is cell-based, human. The protocol:
The JC-1 MitoScreen kit (BD Biosciences, San Diego, CA, USA) was used for the mitochondrial membrane potential (ΔΨm) analysis. The assay was performed using a flow cytometer (BD FACSCanto II, Becton Dickinson Biosciences Systems, San Jose, CA, USA). The Les-3331 and reference drug were used in 1 µM and 5 µM concentrations. After 24 h incubation with tested compounds, the assay was performed as described in the literature. Analysis of the obtained results was performed using FACSDiva software (version 6.1.3, BD Biosciences Systems, San Jose, CA, USA). The equipment was calibrated with BD Cytometer Setup and Tracking Beads (BD Biosciences, San Diego, CA, USA).

A further assay has as its system MDA-MB-231 cells. Nature of the assay: [3H]-thymidine incorporation assay, MDA-MB-231. The format is cell-based. The settings on record: Homo sapiens. As for the experimental part:
(§4) The antiproliferative properties of the newly synthesized compound were investigated through the [^3H]-thymidine incorporation assay, as described in the literature. Cells culture was exposed to various concentrations of Les-3331 acid and reference drug for 24 h. Thereafter, cells were washed with PBS and 1 mL of fresh medium was added to each well. Then, 0.5 µCi of radioactive [^3H]-thymidine was appended, and the incubation continued for four hours. After the following incubation, the liquid was aspirated and the plate was placed on ice. Cells were washed twice with 1 mL of 0.05 M Tris-HCl buffer comprising 0.11 M NaCl, then twice after that with 1 mL of 5% TCA acid (Stanlab, Lublin, Poland). Finally, the cells were dissolved with 1 mL of 0.1 M NaOH with 1% SDS (Sigma-Aldrich, St. Louis, MO, USA) at room temperature (RT). The resulting cell lysates were transferred into scintillation vials containing 2 mL of scintillation fluid. The radioactivity was determined using Scintillation Counter 1900 TR, TRI-CARB (Packard, Perkin Elmer, Inc., San Jose, CA, USA). The intensity of DNA biosynthesis in cells was expressed in dpm of radioactive thymidine incorporated in the DNA. The radioactivity observed in untreated control cells was taken as 100%. Values from the tested compounds were expressed as a percentage of the control value.

For the next assay, the system named is MCF-7 cancer cells. Nature of the assay: [3H]-thymidine incorporation assay, MCF-7. The note with it: Homo sapiens. The format is cell-based. The protocol:
as §4

Turning to `CC(C)C(C(=O)O)N1C(=O)/C(=C/C(Cl)=C/c2ccc([N+](=O)[O-])cc2)SC1=S` (centres unmarked) [Les-3331, 2-{5-[(Z,2Z)-2-chloro-3-(4-nitrophenyl)-2-propenylidene]-4-oxo-2-thioxothiazolidin-3-yl}-3-methylbutanoic acid], the LC3A concentration was 4.917 ng/mL in the assay on LC3A (MCF-7, 1 µM) and 1.127 ng/mL in the assay on LC3A (MCF-7, 5 µM). Moreover, the “Top II concentration” value with topoisomerase II (MDA-MB-231, 1 µM) was determined as 2.508 ng/mL; in the assay with topoisomerase II (MDA-MB-231, 5 µM) it was 1.436 ng/mL. For the same molecule, the Casp-8 concentration with caspase-8 (MDA-MB-231, 1 µM) is 1.012 ng/mL; in the assay on caspase-8 (MDA-MB-231, 5 µM) it was 1.067 ng/mL. The “% of late and early apoptotic cells” value was 6.5% in the assay on MCF-7 cells [1] (MCF-7, 1 µM) and 40.4% in the assay with MCF-7 cells [1] (MCF-7, 5 µM). For the same molecule, the LC3B concentration with LC3B (MDA-MB-231, 1 µM) turned out to be 1.178 ng/mL; in the assay on LC3B (MDA-MB-231, 5 µM), 0.996 ng/mL. In addition, the “% of cells without anti-topoisomerase IIα antibody” value amounted to 5.4% with topoisomerase IIα (MDA-MB-231, 1 µM) and 30.9% with topoisomerase IIα (MDA-MB-231, 5 µM). Further, the “% of cells with decreased ΔΨm” value in the assay on MCF-7 cells [2] (MCF-7, 1 µM) came out at 9.8%; in the assay with MCF-7 cells [2] (MCF-7, 5 µM), 25.5%. The IC50 with MDA-MB-231 cells (MDA-MB-231, read-out: IC50, cell proliferation ([3H]-thymidine incorporation)) is 8.01 µM; in the assay with MCF-7 cancer cells (MCF7, read-out: IC50, cell proliferation ([3H]-thymidine incorporation)), 5.54 µM.
Take `COc1cc([C@@H]2c3cc4c(cc3[C@@H](O[C@@H]3O[C@@H]5CO[C@@H](C)O[C@H]5[C@H](O)[C@H]3O)[C@H]3COC(=O)[C@H]23)OCO4)cc(OC)c1O` [Etoposide, reference compound]: the LC3A concentration was determined as 4.505 ng/mL in the assay with LC3A (MCF-7, 1 µM) and 4.582 ng/mL in the assay with LC3A (MCF-7, 5 µM). Moreover, the “Top II concentration” value in the assay with topoisomerase II (MDA-MB-231, 1 µM) is given as 2.175 ng/mL; with topoisomerase II (MDA-MB-231, 5 µM), 2.003 ng/mL. The Casp-8 concentration in the assay with caspase-8 (MDA-MB-231, 1 µM) came out at 0.836 ng/mL; in the assay on caspase-8 (MDA-MB-231, 5 µM), 0.857 ng/mL. Besides, the “% of late and early apoptotic cells” value in the assay on MCF-7 cells [1] (MCF-7, 1 µM) is listed as 10.7%; in the assay with MCF-7 cells [1] (MCF-7, 5 µM) it was 10.7%. The LC3B concentration in the assay on LC3B (MDA-MB-231, 1 µM) was 0.784 ng/mL; in the assay with LC3B (MDA-MB-231, 5 µM), 0.615 ng/mL. For the same molecule, the “% of cells without anti-topoisomerase IIα antibody” value with topoisomerase IIα (MDA-MB-231, 1 µM) is 7.5%; in the assay with topoisomerase IIα (MDA-MB-231, 5 µM), 9.1%. For the same molecule, the “% of cells with decreased ΔΨm” value with MCF-7 cells [2] (MCF-7, 1 µM) turned out to be 10.2%; with MCF-7 cells [2] (MCF-7, 5 µM), 18.5%. In addition, the IC50 with MDA-MB-231 cells (MDA-MB-231, 24 h incubation, read-out: IC50, cell proliferation ([3H]-thymidine incorporation)) is greater than 20 µM; with MCF-7 cancer cells (MCF7, MCF-7, 24 h incubation, read-out: IC50, cell proliferation ([3H]-thymidine incorporation)), greater than 20 µM.
